# Reference: BindingDB's records for doi:10.1080/14756360601114536 (University of Tehran, 2007)
# Key:
# [1] = molecular target: T1, Polyphenol oxidase 2 (Agaricus bisporus, UniProt O42713); assay: Catecholase Activity Assay; details: pH 6.8; 20 °C
# T1 sequence (O42713 whole entry): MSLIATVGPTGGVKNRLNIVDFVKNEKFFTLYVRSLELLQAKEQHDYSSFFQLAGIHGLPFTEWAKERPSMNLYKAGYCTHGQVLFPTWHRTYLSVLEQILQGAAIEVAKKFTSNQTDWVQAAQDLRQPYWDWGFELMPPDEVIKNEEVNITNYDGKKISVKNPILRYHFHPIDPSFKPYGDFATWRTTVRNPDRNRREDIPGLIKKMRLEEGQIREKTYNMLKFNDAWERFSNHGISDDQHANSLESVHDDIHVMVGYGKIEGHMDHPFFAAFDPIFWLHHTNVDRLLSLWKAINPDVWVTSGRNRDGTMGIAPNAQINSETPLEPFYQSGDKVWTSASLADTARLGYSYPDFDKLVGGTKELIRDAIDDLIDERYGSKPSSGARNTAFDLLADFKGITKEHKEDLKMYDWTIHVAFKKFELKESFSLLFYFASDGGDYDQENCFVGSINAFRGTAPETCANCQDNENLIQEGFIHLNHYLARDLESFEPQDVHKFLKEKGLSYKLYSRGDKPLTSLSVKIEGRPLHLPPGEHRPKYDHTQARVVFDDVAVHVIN
# Experimental: (§1) Kinetic assay of catecholase and cresolase activities was carried out through depletion of MeBACat and MePAPh for 1 or 2 min with enzyme concentrations of 11.11 and 112.68 ug/mL at wavelenghts of 473 nm and 352 nm using a Cary spectrophotometer, 100 Biomodel with jacketed cell holders.
# [2] = molecular target: T1, Polyphenol oxidase 2; assay: Cresolase Activity Assay; details: pH 6.8; 20 °C
# Experimental: as §1
compound,measurement,setting,value
"CC(C)OC(=S)[S][Na] [Iso-propyl xanthate, I]",Ki,[1],12.9 µM
same,Ki,[2],9.8 µM
"CC(C)COC(=S)[S][Na] [Iso-butyl xanthate, II]",Ki,[1],21.8 µM
same,Ki,[2],7.2 µM
"CC(C)CCOC(=S)[S][Na] [Iso-pentyl xanthate, III]",Ki,[1],42.2 µM
same,Ki,[2],6.1 µM
